This note sets out measurements from patent US6979664B1, “Composition for accelerating seed germination and plant growth” (Bios Agriculture Inc., priority 1998, dated 2005).

Several values for one entry are separate records, joined by “and”; a condition that tells them apart may be missing. Identical values can stand only once.

Common to all, as to assay type: in vivo
Test [1] concerns potato microtubers. The experiment in a line: sprouting and multiple sprouting of microtubers cold-stored 8 wk. Conditions: Microtuber (CS8W); for Sprouting (number of sprouted tubers): GA3 500 mg l^−1 / 100% signal solution / Bromoethane 0.2 ml l^−1. The protocol:
(§1) Microtubers (200–500 mg) cold-stored for 8 wk and minitubers (20–35 g) cold-stored for 0, 2, or 8 wk were used for these experiments. BE (0.2 ml l^−1) and mechanical injury (cutting in half, microwaving at full power for 10 sec) were compared with GA3 (500 mgl^−1), 100% signal solution, water soaking, and control treatments. Six microtubers or minitubers were used per treatment. Observations were made at 1, 2, 3, and 4 wk intervals and the number of sprouted tubers were counted. The evaluation period was extended because tubers with little or no cold storage treatment took longer to sprout.

Test [2] relates to potato minitubers. In words: harvests after 60 d from minitubers forced to break dormancy (greenhouse pots). The settings on record: GA3 500 mg l^−1 / 100% signal solution / BE 0.2 m l^−1; for Mean number of tubers produced per replicate / Mean fresh weight: harvest after 60 d; for Mean number sprouts at planting ± SE: minitubers cold-stored 8 wk, 3 wk after treatment; for Mean fresh weight: tubers per replicate (pot). The protocol: Minitubers (20–35 g) that were cold-stored for 8 wk were given dormancy-releasing treatments including 24 h soaking in GA3 (500 mg l^−1), 100% signal solution, or water. Other treatments included BE (0.2 m l^−1), cutting in half, and the control. […] Five minitubers per treatment were individually planted into 11×12 cm plastic pots in the greenhouse. The potting mixture was 2:1 peat:perlite without fertilizer added. The pots were arranged in a complete randomized design and watered equally every alternate day. Harvest occurred after 60 d and tuber yields (number and fresh weight) were recorded.

Test [3] deals with potato minitubers. In words: sprouting and multiple sprouting of minitubers cold-stored 0, 2 or 8 wk. Conditions: for Sprouting (number of sprouted tubers): GA3 500 mg l^−1 / 100% signal solution / Bromoethane 0.2 ml l^−1; for number of tubers with multiple sprouts: six tubers per treatment, doses as title. The protocol:
as §1

Test [4] has as its system potato microtubers. In words: sprouting of microtubers cold-stored 3 weeks, dormancy-breaking agents incl. anti-ABA. The settings on record: evaluated at 2 weeks. Here is the method:
Microtubers (200–600 mg) were cold-stored for 3 wk prior to the experiment. Seven microtubers were used per treatment. Treatments included 24 h soaks in anti-ABA or GA3 (500 and 250 mg l^−1, respectively) applied alone or in combination, GA3 (500 mg l^−1 in combination with 100% signal solution, and water. Bromoethane (0.2 ml l^−1) and control treatments were also performed. Observations were made after 2 wk in the dark at room temperature (20° C.). Data included number of sprouted microtubers and number of multiple sprouts. Means of sprout number were calculated only from microtubers that had sprouted.

Test [5] deals with potato minitubers. The experiment in a line: GA3 and 100% signal solution, dormancy breaking of minitubers cold-stored 3 weeks. The protocol: Minitubers (20–30 g) with 3 wk cold storage treatment were soaked for 24 h in 500 mg l^−1 GA3, 100% signal solution, or a mixture of the two. Another treatment involved successive soaking for 12 h each, in first GA3, and then signal solution. A control treatment without soaking was also performed. Eight minitubers were used per treatment which were applied at room temperature (20° C.). […] were observed after 2 wk and the number of sprouted minitubers and the number with multiple sprouts were counted.

Test [6] concerns potato microtubers. The experiment in a line: dormancy breaking of potato microtubers cold-stored 8 wk. The settings on record: GA3 500 mgl^−1. Here is the method:
Treatments were carried out on microtubers (200–400 mg) that had been cold-stored for 8 wk to determine their effect on breaking dormancy. Signal solution was used at full strength (100%) or diluted to 20% (as for soybean), 12%, or 6% of full strength. GA3 (500 mg l^−1), water soaking, and control treatments were performed for comparison purposes. Microtuber soaking treatments lasted 24 h and then incubation occurred either in the light (40 μmol m^−2s^−1 cool-white fluorescent) or in the dark. Five microtubers were used in each treatment. Observations for sprouted microtubers were made at 1 and 2 wk.
One hundred % signal solution was as effective as GA3 (500 mg l^−1) when evaluated after 1 wk with respect to the number of sprouted microtubers. […] One hundred % signal solution induced multiple sprouts and dark incubation favoured sprouting as compared with the light regime after 1 wk of incubation. The exact cause of dark incubation favouring 100% signal solution is not understood.

Test [7] relates to alfalfa (Medicago sativa). In words: germination of alfalfa seeds (petri plate). The settings on record: after 24 h of treatment. The protocol: Following the methods described above, the LCO most abundantly produced by R. meliloti (Nod Rm-V(C16:2, S)) was isolated and tested on alfalfa (Medicago sativa) seeds. Briefly, 10 seeds were placed in a disk of filter paper on a petri plate. The filter paper was wetted with 5 ml of the appropriate LCO solution. Data were taken at 12 hour intervals upon the radicle (an embryonic root). The number of seed with an emerged radicle were counted. Each treatment was repeated four times. The data presented in table 9 indicate a clear acceleration of growth. In this case no standard for HPLC calibration was available, so a relative dilution series was used. […] In each case, a stimulation of seed germination was observed. Of note, Rhizobium leguminosarum produces a large number of LCOs.

Where [8] appears, read: single agent 24 h soak (GA3 500 mgl^−1 or 100% SS), after 2 wk.

On to `CCBr` [Bromoethane], for which the “Sprouting (number of sprouted tubers)” value in test [1] (1 wk) is on record as 2/6; in test [1] (2 wk) it was 4/6; in test [1] (3 wk), 4/6; in test [1] (4 wk) it was 6/6; in test [3] (Minituber (CS2W), 1 wk), 0; in test [3] (Minituber (CS2W), 2 wk), 0. Further, the “Sprouting (number of sprouted tubers)” value is 0 in test [3] (Minituber (CS2W), 3 wk); 2/6 in test [3] (Minituber (CS2W), 4 wk); 3/6 in test [3] (Minituber (CS8W), 1 wk); 4/6 in test [3] (Minituber (CS8W), 2 wk); 6/6 in test [3] (Minituber (CS8W), 3 wk); 6/6 in test [3] (Minituber (CS8W), 4 wk). Besides, the “Sprouting (number of sprouted tubers)” value came to 0 in test [3] (Minituber (NCS), 1 wk); 0 in test [3] (Minituber (NCS), 2 wk); 0 in test [3] (Minituber (NCS), 3 wk); 0 in test [3] (Minituber (NCS), 4 wk). Also, the “Mean number of tubers produced per replicate” value in test [2] is on record as 2.0. The “Mean number sprouts at planting ± SE” value is 1.8 ± 0.20 in test [2] and 1.8±0.2 in test [2] (listed as BE). Also, in test [2], the Mean fresh weight was found to be 14.01 g·days. In addition, the “number of tubers with multiple sprouts” value in test [3] (Minituber (CS8W), 2 wk) is “(1)”; in test [3] (Minituber (CS8W), 2 wk, listed as BE) it was 1/6; in test [3] (Minituber (CS8W), 3 wk), “(4)”; in test [3] (Minituber (CS8W), 4 wk) it was “(4)”. The “Mean No. sprouts ± SE” value in test [4] (Bromoethane (0.2 ml l^−1)) worked out at 1.0 ± 0. Further, the No. sprouted microtubers in test [4] (Bromoethane (0.2 ml l^−1)) is reported as 1/7.

As to `C=C1C[C@]23C[C@@]1(O)CC[C@H]2[C@@]12C=C[C@H](O)[C@@](C)(C(=O)O1)[C@H]2[C@@H]3C(=O)O` [GA3, gibberellic acid], the “Sprouting (number of sprouted tubers)” value in test [1] (1 wk) is 4/6; in test [1] (2 wk), 5/6; in test [1] (3 wk), 6/6; in test [1] (4 wk) it was 6/6; in test [3] (Minituber (CS2W), 1 wk), 0; in test [3] (Minituber (CS2W), 2 wk), 0/6 and 0. The “Sprouting (number of sprouted tubers)” value in test [3] (Minituber (CS2W), 3 wk) was 3/6; in test [3] (Minituber (CS2W), 4 wk), 5/6; in test [3] (Minituber (CS8W), 1 wk), 5/6; in test [3] (Minituber (CS8W), 2 wk), 6/6; in test [3] (Minituber (CS8W), 3 wk) it was 6/6; in test [3] (Minituber (CS8W), 4 wk), 6/6. Also, the “Sprouting (number of sprouted tubers)” value in test [3] (Minituber (NCS), 1 wk) was 0; in test [3] (Minituber (NCS), 2 wk), 0/6 and 0; in test [3] (Minituber (NCS), 3 wk), 3/6; in test [3] (Minituber (NCS), 4 wk), 4/6. The “number of tubers with multiple sprouts” value is recorded as “(3)” in test [1] (3 wk, six tubers per treatment, doses as title); “(2)” in test [3] (Minituber (CS2W), 4 wk); “(6)” in test [3] (Minituber (CS8W), 3 wk); “(6)” in test [3] (Minituber (CS8W), 4 wk). Further, the sprouting in test [5] (24 h soak, GA3 500 mg l^−1 alone or together with 100% signal solution, 2 wk) stood at 100%. Also, the results for the “Mean number of sprouts ± SE” value in test [5] (setting [8]), in test [6] (+ light) and in test [6] (− light) were 3.37 ± 0.62, 2.5 ± 0.5 and 2.5 ± 0.3, respectively. Moreover, the “Number of minituber with multiple sprouts” value in test [5] (setting [8]) is 6/8. Further, the “Number of sprouted minituber” value in test [5] (setting [8]) is recorded as 8/8. The “Mean number of tubers produced per replicate” value in test [2] was 3.6. Also, the “Mean number sprouts at planting ± SE” value in test [2] is 4.2±0.37. Also, the Mean fresh weight in test [2] stood at 11.13 g·days. For the same compound, the “Mean No. sprouts ± SE” value in test [4] (GA3 500 mgl^−1 24 h) amounted to 1.71±0.28. Further, the No. sprouted microtubers in test [4] (GA3 500 mgl^−1 24 h) was 7/7. Also, the entries for the “Number of multiple sprouted microtubers (2 wk)” value in test [6] (+ light) and in test [6] (− light) were 2/5 and 4/5, respectively. In addition, the “Number of sprouted microtubers” value in test [6] (+ light, 1 wk) was 1/5; in test [6] (+ light, 2 wk) it was 5/5; in test [6] (− light, 1 wk) it was 5/5; in test [6] (− light, 2 wk), 5/5.

In the case of `CCCCCC/C=C\CCCCC/C=C/C(=O)N[C@H]1[C@H](O[C@H]2[C@H](O)[C@@H](NC(C)=O)[C@H](O[C@H]3[C@H](O)[C@@H](NC(C)=O)[C@H](O[C@H]4[C@H](O)[C@@H](NC(C)=O)[C@H](O[C@H]5[C@H](O)[C@@H](NC(C)=O)C(O)O[C@@H]5COS(=O)(=O)O)O[C@@H]4CO)O[C@@H]3CO)O[C@@H]2CO)O[C@H](CO)[C@@H](O)[C@@H]1O` (stereo partly drawn) [Nod Rm-V(C16:2, S)], the “Percent germination” value in test [7] (10^−1 dilution) is 26.6 ab Percent; in test [7] (10^−2 dilution), 26.6 ab Percent; in test [7] (10^−3 dilution), 36.6 a Percent.
